Test results: PubChem BioAssay AID623864 (Southern Research Specialized Biocontainment Screening …, 2012)
Activity calls are given as the source filed them. No rule for the calls is given here.

System: not listed separately
Test: viability of VeroE6 cells – cytotoxicity control for flavivirus guanylyltransferase probe project, dose response (AID 623864)
Settings: VeroE6 cell viability, cytotoxicity CC50; at 50 µM (top of the series)

With `Cn1c(=O)c2[nH]c(-c3ccc(Cl)cc3)c(O)c2n(C)c1=O` the viability was 72.3% (inactive).

System: VeroE6 cell viability, cytotoxicity CC50
Test: as above
Settings: not given

Point of comparison: `Cc1ccc(S(=O)(=O)Nc2cc(SCC(=O)O)c(O)c3ccccc23)cc1`, CC50 27.6 µM. Against it:
- O=S(=O)(Nc1cc(SCc2ccccc2)c(O)c2ccccc12)c1ccc(Cl)cc1 — within 1.5-fold, 32.3 µM
- O=S(=O)(Nc1cc(Cl)c(O)c2ccccc12)c1ccc(F)cc1 — within 1.5-fold, 29.4 µM
- COc1ccc(OC)c(S(=O)(=O)Nc2cc(SCC(=O)O)c(O)c3ccccc23)c1 — within 1.5-fold, 29.7 µM
- O=[N+]([O-])c1cccc(S(=O)(=O)Nc2cc(Sc3nc4ccccc4s3)c(O)c3ccccc23)c1 — 3.7-fold lower, 7.37 µM
- O=S(=O)(Nc1cc(Sc2ncn[nH]2)c(O)c2ccccc12)c1ccc(F)cc1 — within 1.5-fold, 31.7 µM
- Cc1cc(F)ccc1S(=O)(=O)Nc1cc(SCC(=O)O)c(O)c2ccccc12 — within 1.5-fold, 21.6 µM
- O=C(O)CSc1cc(NS(=O)(=O)c2ccc(Br)cc2)c2ccccc2c1O — within 1.5-fold, 21.6 µM
- O=C(O)CSc1cc(NS(=O)(=O)c2ccc(Cl)cc2)c2ccccc2c1O — within 1.5-fold, 30.8 µM
- Cc1ccc(S(=O)(=O)Nc2cc(Sc3nc(C)cc(C)n3)c(O)c3ccccc23)cc1 — 2.2-fold lower, 12.8 µM
- Cc1cc(C)c(S(=O)(=O)Nc2cc(SCC(=O)O)c(O)c3ccccc23)c(C)c1 — 2.2-fold lower, 12.6 µM
- O=C(O)CSc1cc(NS(=O)(=O)c2cccc([N+](=O)[O-])c2)c2ccccc2c1O — within 1.5-fold, 30.9 µM
- O=C(O)CSc1cc(NS(=O)(=O)c2cccc3cccnc23)c2ccccc2c1O — within 1.5-fold, 19.2 µM
- O=[N+]([O-])c1cccc(S(=O)(=O)Nc2cc(SCc3ccccc3)c(O)c3ccccc23)c1 — 1.9-fold lower, 14.4 µM
- O=C(O)CSc1cc(NS(=O)(=O)c2ccc(F)cc2)c2ccccc2c1O — within 1.5-fold, 20 µM
